Laboratory results published in patent US9073858B2, “Methods of targeted drug development” (priority 2010, dated 2015).
Read-outs that look alike come from different tables or passages of the source.

Assays:
[1] = target: T1, EGFR (Homo sapiens, UniProt P00533); assay: EGFR in-cell Western (ICW) screening protocol; format: cell-based; design: unit not given here; settings: listed as 1505
T1 construct: endogenous in cells; host or cells: A431 cells (ATCC CRL-1555)
Procedure, shortened: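 Serum-starved cells treated with compound 4 h at 37 °C, then stimulated with EGF (20 or 0 ng/ml solution added) in its continued presence. In-cell Western on fixed cells: phospho-EGFR (800 channel) normalised to total EGFR (700 channel), % inhibition calculated against EGF-stimulated and unstimulated no-compound wells.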

[2] = system: MDBK line; assay: MTT Cell Proliferation Assay, MDBK line; format: cell-based, bovine; settings: 72 h; second value of A431/MDBK pair; read-out: MTT-72 h MDBK
Procedure, shortened: (§1)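 Cells plated overnight, then exposed 3 days at 37 °C, 5% CO2 to compound in growth medium with 0.5% FBS and 0.5% DMSO final (0.5% DMSO as control).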

[3] = system: EGF receptor-mediated cell proliferation; assay: Combinatorial studies with known EGFR inhibitors, median effect analysis (MTT assay); settings: for DRI @ ED97: Dose Reduction Index
Protocol: Studies were initiated to evaluate the ability of various compounds disclosed herein to synergize with several compounds known to inhibit the function of the EGF receptor in a cell proliferation assay (MTT assay).
The EGFR inhibitor and AD4 compound dilutions were then mixed 1:1 in a 96 well plate. 50 μl of the mix was then added to the cell plate.
A shifting of the inhibitor curve to the left indicates an increase in the effectiveness of the AD4-compound.

[4] = system: epithelial carcinoma A431 cell line; assay: MTT Cell Proliferation Assay, A431 cell line; format: cell-based; settings: 72 h
Procedure, shortened: as §1

[5] = target: T2, EGF binding site, rat liver membranes (Rattus norvegicus, UniProt G3V6K6); assay: Inhibition of [125I]EGF binding (NovaScreen EGF inhibitor assay)
T2 construct: Receptor source was rat liver membranes; tissue NovaScreen BioSciences; host or cells: rat liver membranes
Protocol: Identified compounds, representing various pharmacaphore models, were tested for ability to inhibit EGFR at 25 μM.
AD4-compounds were identified using pharmacophore models (see Example 3) and then were docked with the binding site of EGFR (SEQ ID NO: 1) that is recognized by defined CDRs of cetuximab.
Receptor source was rat liver membranes. The radioligand was [^125I]EGF ([…]) at a final ligand concentration of 0.36 nM. A non-specific determinant was used as EGF—[100 nM]. The reference compound and positive control was EGF. Reactions were carried out in 10 mM HEPES (pH 7.4) containing 0.1% BSA at 25° C. for 60 minutes. The reaction was terminated by rapid vacuum filtration onto glass fiber filters. Radioactivity trapped onto the filters was determined and compared to control values to ascertain any interactions of test compounds with the EGF binding site. The EGF inhibitor assays were modified from, for example, Mukku (1984) J. Biol. Chem. 259, 6543-6546; Duh et al. (1990) World J. Surgery 14, 410-418; Lokeshwar et al. (1989) J. Biol. Chem. 264(32), 19318-19326.

[6] = Stability on incubation with mouse liver microsomes (MLM); format: in vitro ADME; settings: percentage left after incubation with mouse liver microsomes for 30 minutes
Procedure, shortened: (§2)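 Values are percent compound remaining after 30 min incubation with mouse or human liver microsomes.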

[7] = system: HT-29 cells; assay: HT-29 Cell Proliferation Assay (MTT); format: cell-based; settings: Homo sapiens, HT-29, 72 h, read-out: IC50 Value (μM) HT-29 Cells
[8] = system: H1975 cells; assay: H1975 Cell Proliferation Assay (MTT); format: cell-based; settings: Homo sapiens, NCI-H1975, 72 h, read-out: IC50 Value (μM) H1975 Cells
[9] = system: A549 cells; assay: A549 Cell Proliferation Assay (MTT); format: cell-based; settings: Homo sapiens, A549, 72 h, read-out: IC50 Value (μM) A549 Cells
[10] = Stability on incubation with human liver microsomes (HLM); format: in vitro ADME; settings: percentage left after incubation with human liver microsomes for 30 minutes
Procedure, shortened: as §2

[11] = system: annexin V in A549 cells; settings: for % Total Apoptosis: cells in early- and late-stage apoptosis; for % Relative to Reference Cpd.: reference 4.0 μM camptothecin or 1.0 μM staurosporin
Source text: Assays that measure apoptosis are utilized to determine whether or not compounds can induce programmed cell death in cancer cells. Annexin V is a protein that is used to detect apoptosis by binding to phosphatidylserine expressed on membranes of dead or dying cells. Fluorescently tagged with FITC, it can he used in conjunction with 7-aminoactinomycin D to determine the percentage of cells undergoing apoptosis via flow cytometry. Cells in early apoptosis will emit an FITC signal which will eventually be replaced by the far red 7-AAD signal that is associated with cell membrane permeability due to necrosis.
In brief, for the Annexin V Assay, compounds were added to cells plated in 6-well plates. Treated cells were incubated for up to 30 hours before addition of fluorescent cell marker probes that detect the presence of annexin V. The percentage of cells undergoing apoptosis and necrosis were determined by flow cytometry.
On day 2, working solutions of compounds (at 1000×) were prepared. To 2.0 ml media/well was added 2 μl 1000× compound diluted in 100% DMSO for final DMSO concentration of 0.1%. On day 3, plates were incubated for 30 hrs. […] Cells were collected by centrifugation at 300×g for 5 min.
Resuspended cells were stored at 4° C. in the dark, until flow cytometry analysis.
For flow cytometry analysis of the Annexin V Assay, sample acquisition was on the BD LSR II manufactured by BD Biosciences, San Jose, Calif. […] 10,000 events werer collected based on a stopping gate of forward scatter vs side scatter light. Acquisition was done through BD FACS DiVa software version 6.1.1 on high flow rate (60 μL/min). Calculations were as follows: Quadrant 3=lower left=live cells; Quadrant 4=lower right=early apoptosis; Quadrant 2=upper right=late apoptosis; Quadrant 1=upper left=dead cells. Percent (%)Total apoptosis was calculated as early (quadrant 4)+late (quadrant 2). Percent (%) ratio apoptosis was calculated as (experimental-No treatment/positive control)*100. All statistical analyses are done using GraphPad Prism or Microsoft Excel.

[12] = system: DNA fragmentation in A549 cells; assay: DNA Fragmentation Assay (Cell Death Detection ELISA); format: cell-based; settings: Caspase, DNA Fragmentation, Annexin-V

T1 sequence (P00533 25-1210): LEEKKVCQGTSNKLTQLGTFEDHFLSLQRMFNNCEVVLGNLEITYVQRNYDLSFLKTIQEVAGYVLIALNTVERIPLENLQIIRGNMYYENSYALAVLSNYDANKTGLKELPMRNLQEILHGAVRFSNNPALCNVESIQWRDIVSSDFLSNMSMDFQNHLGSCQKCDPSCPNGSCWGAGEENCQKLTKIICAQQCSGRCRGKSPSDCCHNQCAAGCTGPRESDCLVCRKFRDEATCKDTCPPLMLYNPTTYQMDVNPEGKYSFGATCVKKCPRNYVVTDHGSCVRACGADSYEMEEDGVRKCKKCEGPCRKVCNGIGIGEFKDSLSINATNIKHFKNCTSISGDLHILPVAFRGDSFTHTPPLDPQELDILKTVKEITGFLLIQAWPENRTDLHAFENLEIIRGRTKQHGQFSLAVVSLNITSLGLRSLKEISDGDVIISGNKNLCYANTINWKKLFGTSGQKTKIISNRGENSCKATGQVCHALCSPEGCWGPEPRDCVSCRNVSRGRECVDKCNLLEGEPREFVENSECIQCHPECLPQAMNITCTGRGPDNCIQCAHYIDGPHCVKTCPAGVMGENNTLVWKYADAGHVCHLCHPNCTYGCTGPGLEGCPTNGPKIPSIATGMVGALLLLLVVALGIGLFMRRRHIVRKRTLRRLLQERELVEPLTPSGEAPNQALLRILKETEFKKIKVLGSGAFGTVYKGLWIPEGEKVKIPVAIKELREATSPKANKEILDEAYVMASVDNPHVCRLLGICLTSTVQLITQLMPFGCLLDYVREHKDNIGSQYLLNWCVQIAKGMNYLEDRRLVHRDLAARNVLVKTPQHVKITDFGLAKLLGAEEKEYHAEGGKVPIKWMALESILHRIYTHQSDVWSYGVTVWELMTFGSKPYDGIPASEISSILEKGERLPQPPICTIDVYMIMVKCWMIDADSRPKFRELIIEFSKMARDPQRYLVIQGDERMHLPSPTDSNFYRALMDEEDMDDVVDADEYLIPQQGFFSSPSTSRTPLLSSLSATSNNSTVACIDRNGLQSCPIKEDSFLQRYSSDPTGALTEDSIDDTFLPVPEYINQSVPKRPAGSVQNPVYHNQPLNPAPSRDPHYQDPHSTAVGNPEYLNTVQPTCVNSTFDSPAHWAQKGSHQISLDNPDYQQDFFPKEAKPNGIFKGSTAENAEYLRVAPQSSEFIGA
T2 sequence (G3V6K6 25-1209): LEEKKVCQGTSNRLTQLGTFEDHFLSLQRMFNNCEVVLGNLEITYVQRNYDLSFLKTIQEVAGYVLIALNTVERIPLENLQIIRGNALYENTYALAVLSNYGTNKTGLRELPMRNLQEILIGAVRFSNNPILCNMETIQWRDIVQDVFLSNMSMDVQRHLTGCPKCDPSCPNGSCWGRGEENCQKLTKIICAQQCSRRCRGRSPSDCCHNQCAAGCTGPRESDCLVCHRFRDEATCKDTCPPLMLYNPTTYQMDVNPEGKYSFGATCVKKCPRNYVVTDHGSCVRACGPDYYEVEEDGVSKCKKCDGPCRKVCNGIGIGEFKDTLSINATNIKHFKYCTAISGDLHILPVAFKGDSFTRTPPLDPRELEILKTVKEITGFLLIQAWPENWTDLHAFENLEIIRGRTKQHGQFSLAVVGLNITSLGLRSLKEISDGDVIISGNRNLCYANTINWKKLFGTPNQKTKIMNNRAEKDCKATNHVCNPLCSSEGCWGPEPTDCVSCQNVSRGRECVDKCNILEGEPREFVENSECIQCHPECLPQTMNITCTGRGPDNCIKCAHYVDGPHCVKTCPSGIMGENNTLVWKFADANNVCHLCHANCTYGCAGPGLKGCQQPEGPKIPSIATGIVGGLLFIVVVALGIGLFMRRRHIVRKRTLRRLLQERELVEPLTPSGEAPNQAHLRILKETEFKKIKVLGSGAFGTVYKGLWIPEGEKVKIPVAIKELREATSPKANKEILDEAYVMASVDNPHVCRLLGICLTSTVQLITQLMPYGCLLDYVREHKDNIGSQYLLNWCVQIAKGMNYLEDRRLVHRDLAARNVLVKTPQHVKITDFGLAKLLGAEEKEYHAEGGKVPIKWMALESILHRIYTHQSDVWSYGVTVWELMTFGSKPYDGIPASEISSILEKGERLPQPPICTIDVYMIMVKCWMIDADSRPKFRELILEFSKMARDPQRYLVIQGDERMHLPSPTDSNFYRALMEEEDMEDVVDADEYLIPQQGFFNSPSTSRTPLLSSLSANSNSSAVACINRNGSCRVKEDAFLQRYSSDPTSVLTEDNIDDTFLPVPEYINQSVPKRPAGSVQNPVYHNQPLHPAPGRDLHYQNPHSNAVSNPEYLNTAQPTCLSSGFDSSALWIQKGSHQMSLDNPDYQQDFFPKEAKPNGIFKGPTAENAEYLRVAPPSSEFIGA

In the case of `COc1ccc(C(Nc2cc(C)ccn2)c2ccc3cccnc3c2O)cc1O` (stereo not drawn) [AD4-1505], the “ICW Screen” value ([1]; initial screen) is reported as 55.71, the “ICW Re-Test” value ([1]; re-test) is reported as 47.05 and the IC50 [2] is reported as 9330 nM. For the same molecule, the “CI @ ED90” value ([3]; Combination Index with Iressa at 90% inhibition) was 0.59, the “CI @ ED90” value ([3]; Combination Index with Tykerb at 90% inhibition) was 0.10 and the “DRI @ ED97” value ([3]; effect of the test compound on Iressa) was 78. For the same molecule, the “DRI @ ED97” value ([3]; effect of the test compound on Tykerb) was 203, the “synergy with Iressa” value ([3]; based on CI value) was “shows synergy” and the “synergy with Tykerb” value ([3]; based on CI value) was “significant synergy”. For the same molecule, the “shift in Tykerb's dose-response curve” value ([3]; in combination with Tykerb) was “leftward shift (i.e., greater potency)”, the IC50 ([3]; read-out: IC50 Iressa + Compound (nM)) was 133 nM and the IC50 ([4]; first value of A431/MDBK pair, read-out: MTT-72 h A431) was 8360 nM. The “MTT-72 h A431/MDBK (ratio)” value ([4]; value in brackets, numerically MDBK value over A431 value, listed as 1505) was 1.12 and the “inhibition of epidermal growth factor binding” value [5] was “inhibitor of epidermal growth factor binding to its receptor”.

With `Oc1c(C(Nc2cc(Cl)c(Cl)cn2)c2ccc(F)cc2Cl)ccc2cccnc12` (stereo not drawn) [AD4-13185] the “MLM % Remaining@ 30 Min” value [6] was 57%, the IC50 [7] was 1.2 µM and the IC50 [8] was 0.23 µM. For the same molecule, the IC50 [9] was 0.18 µM, the “HLM % Remaining@ 30 Min” value [10] was 98% and the “apoptosis, share of the cell population” value ([11]; 1 μM, A549 cells, FIG. 16B) was “greater than 50%”. The “% Total Apoptosis” value ([11]; 1 μM, A549 cells) was 42%, the “% Relative to Reference Cpd.” value ([11]; 1 μM) was 161% and the “late apoptosis, share of the cell population” value ([11]; 10 μM, A549 cells, FIG. 16B) was “up to 20%”. For the same molecule, the “% Total Apoptosis” value ([11]; 10 μM, A549 cells) was 30%, the “% Relative to Reference Cpd.” value ([11]; 10 μM) was 202% and the apoptotic activity [12] was “increased apoptotic activity”.

With `Cc1cc(Cl)cnc1NC(c1cccc(Cl)c1Cl)c1ccc2cccnc2c1O` (stereo not drawn) [AD4-13147] the “MLM % Remaining@ 30 Min” value [6] was 44%, the IC50 [7] was 0.77 µM and the IC50 [8] was 0.29 µM. The IC50 [9] was 0.11 µM, the “HLM % Remaining@ 30 Min” value [10] was 98% and the “% Total Apoptosis” value ([11]; 1 μM, A549 cells) was 29%. The “% Total Apoptosis” value ([11]; 10 μM, A549 cells) was 28%.
